Experimental findings from US20260007133A1, “HERBICIDAL COMPOSITION COMPRISING AZINE COMPOUNDS” (BASF SE, priority 2022, published 2026) are described below.

Each structure is given as a SMILES string. Where two headings read alike, the source gives them in different places.

Holding throughout (type): in vivo
In one experiment the test system is Galium aparine. In words: Greenhouse pre-emergence (PRE) herbicidal test on GALAP. The note with it: PRE, GALAP. From the text:
(§1) The culture containers used were plastic pots containing loamy sand with approximately 3.0% of humus as substrate. The seeds of the test plants were sown separately for each species.
(§2) For the pre-emergence treatment, the active compounds, suspended or emulsified in water, were applied directly after sowing by means of finely distributing nozzles. The containers were irrigated gently to promote germination and growth and subsequently covered with transparent plastic hoods until the plants had rooted. This cover caused uniform germination of the test plants unless this was adversely affected by the active compounds.
(§3) Depending on the species, the plants were kept at 10-25° C. and 20-35° C., respectively.
(§4) The test period extended over 2 to 4 weeks. During this time, the plants were tended and their response to the individual treatments was evaluated.
(§5) Evaluation was carried out using a scale from 0 to 100. 100 means no emergence of the plants, or complete destruction of at least the above-ground parts, and 0 means no damage or normal course of growth. A good herbicidal activity is given at values of at least 70, and very good herbicidal activity is given at values of at least 85.
(§6) If not stated differently, the respective components A and B, and if appropriate, C were formulated as a 5% by weight strength emulsion concentrate and, with addition of the amount of solvent system, introduced into the spray liquor used for applying the active compound.
(§7) As indicated application was either post emergent (POST) at the respective growth stage (GS) of the weed (BBCH code), or pre-emergent (PRE).
(§8) Assessment was 20 days after treatment (DAT).

The next experiment has as its system Polygonum convolvulus. In words: Greenhouse pre-emergence (PRE) herbicidal test on POLCO.
Excerpt: as §1, §2, §3, §4, §5, §6, §7, §8

The subject of experiment [1] is Abutilon theophrasti. In words: Greenhouse pre-emergence (PRE) herbicidal test on ABUTH. The note with it: PRE, ABUTH. In a few lines: (§9)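 Seeds were sown per species in pots of loamy sand with about 3.0% humus, treated pre-emergence, watered and hooded until rooted. Plants grew at 10-25° C or 20-35° C depending on species. Damage was scored 0-100 (100 = no emergence or above-ground parts destroyed) at 20 DAT.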

In experiment [2] the test system is Euphorbia heterophylla. In words: Greenhouse pre-emergence (PRE) herbicidal test on EPHHL. Conditions: PRE; for % activity: EPPHL. In a few lines: as §9
In experiment [3] the test system is Commelina benghalensis. In words: Greenhouse pre-emergence (PRE) herbicidal test on COMBE. The note with it: Commelina benghalensis, pre-emergence, PRE, COMBE. In a few lines: as §9
For the next experiment, the system named is Lolium multiflorum. In words: Greenhouse pre-emergence (PRE) herbicidal test on LOLMU. The note with it: Lolium multiflorum, pre-emergence, PRE, LOLMU. In a few lines: as §9
Experiment [4] relates to Ipomoea hederacea. In words: Greenhouse pre-emergence (PRE) herbicidal test on IPOHE. The note with it: Ipomoea hederacea, pre-emergence, 480 h, PRE, IPOHE, 20 DAT.
Excerpt: as §1, §2, §3, §4, §5, §6, §7, §8

In experiment [5] the test system is Setaria viridis. In words: Greenhouse post-emergence (POST) herbicidal test on SETVI. Conditions: 480 h, 20 DAT. The protocol:
as §1
(§10) For the post-emergence treatment, the test plants were grown to a plant height of from 3 to 15 cm, depending on the plant habit, and only then treated with the active compounds which had been suspended or emulsified in water. To this end, the test plants were either sown directly, and grown in the same containers, or they were first grown separately as seedlings and transplanted into the test containers a few days prior to treatment.
as §3, §4, §5, §6, §7, §8

Experiment [6] has as its system Euphorbia heterophylla. In words: Greenhouse post-emergence (POST) herbicidal test on EPHHL. Conditions: Euphorbia heterophylla, post-emergence, 480 h, POST, EPHHL, 20 DAT. In a few lines: (§11)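 Injury was rated visually on a 0–100 scale, where 0 is normal growth and 100 is complete above-ground kill, 20 days after treatment. Test plants at 3–15 cm height received a post-emergence spray of water-dispersed active from 5% emulsion concentrates. Pots held loamy sand with ~3.0% humus, at 10-25 °C or 20-35 °C depending on species.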

A further experiment relates to Echinochloa crus-galli. In words: Greenhouse pre-emergence (PRE) herbicidal test on ECHCG. The note with it: Echinochloa crus-galli, pre-emergence, 480 h, PRE, ECHCG, 20 DAT.
Experiment [7] relates to Commelina benghalensis. In words: Greenhouse post-emergence (POST) herbicidal test on COMBE. Conditions: 480 h, 20 DAT. The protocol: as §1, §10, §3, §4, §5, §6, §7, §8
In another experiment the test system is Digitaria sanguinalis. In words: Greenhouse post-emergence (POST) herbicidal test on DIGSA. Conditions: Digitaria sanguinalis, post-emergence, 480 h, POST, DIGSA, 5 gai/ha, 20 DAT; read-out: % activity solo application. In a few lines: as §11
A further experiment deals with Ambrosia artemisiifolia. In words: Greenhouse pre-emergence (PRE) herbicidal test on AMBEL. The note with it: Ambrosia artemisiifolia, pre-emergence, 480 h, PRE, AMBEL, 20 DAT, read-out: % activity solo application.
The test system of a further experiment is Geranium pusillum. In words: Greenhouse post-emergence (POST) herbicidal test on GERPU. Conditions: Geranium pusillum, post-emergence, 480 h, POST, GERPU, 20 DAT. The procedure, abridged:
as §11

Experiment [8] relates to Amaranthus retroflexus. In words: Greenhouse post-emergence (POST) herbicidal test on AMARE. Conditions: Amaranthus retroflexus, post-emergence, 480 h, POST, AMARE, 20 DAT, read-out: % activity solo application. The procedure, abridged: as §11
For experiment [9], the system named is Ipomoea hederacea. In words: Greenhouse post-emergence (POST) herbicidal test on IPOHE. The note with it: Ipomoea hederacea, post-emergence, 480 h, POST, IPOHE, 20 DAT, read-out: % activity solo application. In a few lines:
as §11

The test system of experiment [10] is Setaria viridis. In words: Greenhouse pre-emergence (PRE) herbicidal test on SETVI. The note with it: Setaria viridis, pre-emergence, 480 h, PRE, SETVI, 20 DAT, read-out: % activity solo application. In a few lines:
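Seeds sown per species in pots of loamy sand with approx. 3.0% humus; compounds suspended or emulsified in water were sprayed via fine nozzles directly after sowing. Pots were watered and hooded until rooted, held at 10-25° C. or 20-35° C. by species, and scored 0–100 (100 = no emergence/complete destruction) 20 DAT.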

Experiment [11] deals with Amaranthus retroflexus. In words: Greenhouse pre-emergence (PRE) herbicidal test on AMARE. The note with it: Amaranthus retroflexus, pre-emergence, 480 h; PRE, AMARE, 1.25 gai/ha, 20 DAT; read-out: % activity solo application. The procedure, abridged:
as §9

For the next experiment, the system named is Alopecurus myosuroides. In words: Greenhouse pre-emergence (PRE) herbicidal test on ALOMY. The note with it: Alopecurus myosuroides, pre-emergence, 480 h, PRE, ALOMY, 20 DAT, read-out: % activity solo application. The procedure, abridged: as §9
For experiment [12], the system named is Abutilon theophrasti. In words: Greenhouse post-emergence (POST) herbicidal test on ABUTH. Conditions: Abutilon theophrasti, post-emergence, 480 h, POST, ABUTH, 20 DAT, read-out: % activity solo application. In a few lines: as §11
The mark [13] stands for this setting: use rate 8 gai/ha, read-out: % activity.
The mark [14] stands for this setting: 480 h, 1.25 gai/ha, 20 DAT, read-out: % activity solo application.

On to `CC1(C)CON(Cc2ccc(Cl)cc2Cl)C1=O` [Bixlozone, bixlozone], for which the “% activity” value in the experiment with Galium aparine (use rate 60 gai/ha) is on record as 50%; with Polygonum convolvulus (use rate 60 gai/ha), 0%; in the experiment with Abutilon theophrasti [1] (use rate 60 gai/ha), 0%; in the experiment with Euphorbia heterophylla [2] (use rate 15 gai/ha), 0%; with Euphorbia heterophylla [2] (use rate 60 gai/ha) it was 0%.

On to `CCC(CC)Nc1c([N+](=O)[O-])cc(C)c(C)c1[N+](=O)[O-]` [Pendimethalin, pendimethalin], for which the inhibition at 200 g/ha worked out at 40% with Commelina benghalensis [3] (use rate 200 gai/ha); 0% in the experiment on Galium aparine (Galium aparine, pre-emergence, use rate 200 gai/ha); 65% in the experiment on Abutilon theophrasti [1] (Abutilon theophrasti, pre-emergence, use rate 200 gai/ha); 0% in the experiment on Lolium multiflorum (use rate 200 gai/ha). For the same compound, the inhibition at 800 g/ha turned out to be 50% in the experiment on Commelina benghalensis [3] (use rate 800 gai/ha); 10% in the experiment on Galium aparine (Galium aparine, pre-emergence, use rate 800 gai/ha); 70% in the experiment with Polygonum convolvulus (Fallopia convolvulus, pre-emergence, use rate 800 gai/ha).

For the compound `Cn1nc(C(F)(F)F)c(CS(=O)(=O)C2=NOC(C)(C)C2)c1OC(F)F` [Pyroxasulfone, pyroxasulfone], the inhibition at 16 g/ha with Ipomoea hederacea [4] (use rate 16 gai/ha) stood at 0%; in the experiment on Setaria viridis [5] (use rate 16 gai/ha) it was 80%; in the experiment on Euphorbia heterophylla [6] (use rate 16 gai/ha), 25%; in the experiment on Abutilon theophrasti [1] (Abutilon theophrasti, pre-emergence, 480 h, use rate 16 gai/ha, 20 DAT) it was 10%; in the experiment on Euphorbia heterophylla [2] (Euphorbia heterophylla, pre-emergence, 480 h, EPHHL, use rate 16 gai/ha, 20 DAT) it was 25%; in the experiment on Commelina benghalensis [7] (use rate 16 gai/ha), 45%. Moreover, the inhibition at 4 g/ha with Setaria viridis [5] (use rate 4 gai/ha) amounted to 30%; in the experiment on Echinochloa crus-galli (use rate 4 gai/ha) it was 80%; in the experiment on Abutilon theophrasti [1] (Abutilon theophrasti, pre-emergence, 480 h, use rate 4 gai/ha, 20 DAT) it was 0%; with Euphorbia heterophylla [2] (Euphorbia heterophylla, pre-emergence, 480 h, EPHHL, use rate 4 gai/ha, 20 DAT), 25%. Also, the inhibition at 8 g/ha with Setaria viridis [5] (use rate 8 gai/ha) was found to be 40%; in the experiment with Euphorbia heterophylla [6] (setting [13]) it was 10%; in the experiment with Echinochloa crus-galli (setting [13]), 80%; in the experiment with Abutilon theophrasti [1] (Abutilon theophrasti, pre-emergence, 480 h, use rate 8 gai/ha, 20 DAT, read-out: % activity), 0%; in the experiment with Euphorbia heterophylla [2] (Euphorbia heterophylla, pre-emergence, 480 h, EPHHL, use rate 8 gai/ha, 20 DAT, read-out: % activity), 20%.

For the compound `CC(C)N(C)S(=O)(=O)NC(=O)c1cc(-n2c(=O)cc(C(F)(F)F)n(C)c2=O)c(F)cc1Cl` [Saflufenacil, saflufenacil], the inhibition at 5 g/ha was determined as 0% in the experiment with Digitaria sanguinalis; 50% in the experiment with Ambrosia artemisiifolia (5 gai/ha); 80% in the experiment on Geranium pusillum (use rate 5 gai/ha, read-out: % activity); 25% in the experiment with Ipomoea hederacea [4] (use rate 5 gai/ha); 60% with Setaria viridis [5] (use rate 5 gai/ha); 0% in the experiment on Amaranthus retroflexus [8] (5 gai/ha). The inhibition at 5 g/ha was determined as 10% in the experiment with Ipomoea hederacea [9] (5 gai/ha); 0% with Echinochloa crus-galli (5 gai/ha, read-out: % activity solo application); 0% in the experiment on Setaria viridis [10] (5 gai/ha); 50% with Euphorbia heterophylla [2] (Euphorbia heterophylla, pre-emergence, 480 h, EPHHL, 5 gai/ha, 20 DAT, read-out: % activity solo application); 10% in the experiment with Alopecurus myosuroides (5 gai/ha); 10% in the experiment with Abutilon theophrasti [12] (5 gai/ha). In addition, the inhibition at 5 g/ha in the experiment on Lolium multiflorum (480 h, 5 gai/ha, 20 DAT, read-out: % activity solo application) worked out at 0%; with Lolium multiflorum (480 h, use rate 5 gai/ha, 20 DAT, read-out: % activity), 45%. Also, the inhibition at 1.25 g/ha with Ambrosia artemisiifolia (1.25 gai/ha) was 0%; in the experiment with Amaranthus retroflexus [8] (1.25 gai/ha), 0%; in the experiment on Ipomoea hederacea [9] (1.25 gai/ha) it was 0%; with Commelina benghalensis [3] (setting [14]), 5%; in the experiment with Echinochloa crus-galli (1.25 gai/ha, read-out: % activity solo application), 0%; in the experiment with Abutilon theophrasti [1] (Abutilon theophrasti, pre-emergence, 480 h, 1.25 gai/ha, 20 DAT, read-out: % activity solo application), 10%. In addition, the inhibition at 1.25 g/ha in the experiment with Setaria viridis [10] (1.25 gai/ha) turned out to be 0%; with Amaranthus retroflexus [11], 0%; in the experiment with Euphorbia heterophylla [2] (Euphorbia heterophylla, pre-emergence, 480 h, EPHHL, 1.25 gai/ha, 20 DAT, read-out: % activity solo application) it was 5%; with Alopecurus myosuroides (1.25 gai/ha), 20%; with Abutilon theophrasti [12] (1.25 gai/ha) it was 5%; with Commelina benghalensis [7] (use rate 1.25 gai/ha) it was 60%. For the same compound, in the experiment with Lolium multiflorum (setting [14]), the inhibition at 1.25 g/ha was 0%. Also, the inhibition at […] in the experiment with Geranium pusillum (use rate 2.5 gai/ha) amounted to 60%; in the experiment with Ipomoea hederacea [4] (use rate 2.5 gai/ha), 5%.
